Source: patent US7223865B2, “Chromogenic compounds, and use thereof as enzyme substrates” (Biomerieux, priority 2003, dated 2007)

Experiments:
Experiment in all cases: β-alanine-aminopeptidase activity on gelled medium, Example 5
Type in all cases: cell-based
Settings in all cases: 0.3 g/l
[1] = test system: Pseudomonas stutzeri (073)
Method: (§1) A gelled medium comprising 300 mg/l of β-Ala-4-AP-10-MA is prepared as follows: 46.37 g of Columbia agar are added to 1 liter of distilled water and then autoclaved, and the substrate is then introduced by means of a stock solution in DMSO. Microorganisms derived from the applicant's collection were seeded onto the medium, by delimitation as three dials, using a suspension of 0.5 McFarland. The dishes were incubated at 37° C. for 48 hours. The colonies formed were examined visually after incubation for 24 and 48 hours. The color of these colonies and also the intensity of this color were noted.

[2] = test system: Pseudomonas fluorescens (016)
Method: as §1

[3] = test system: Burkholderia cepacia (004)
Method: as §1

[4] = test system: Pseudomonas aeruginosa (165)
Method: as §1

[5] = test system: Pseudomonas aeruginosa (052)
Method: as §1

Escherichia coli (032) = test system: Escherichia coli (032)
Method: as §1

[6] = test system: Klebsiella pneumoniae (023)
Method: as §1

[7] = test system: Acinetobacter calcoaceticus (034)
Method: as §1

Pseudomonas putida (028) = test system: Pseudomonas putida (028)
Method: as §1

`C[n+]1c2ccccc2c(-c2ccc(NC(=O)CCN)cc2)c2ccccc21.[Cl-]` [β-Ala-4-AP-10-MA, β-alanyl-9-(4-aminophenyl)-10-methylacridinium chloride] was tested, and the Color ([1]; 24 H) was “inhibited”, the Color ([1]; 48 h) was “colorless” and the Color ([2]; 24 H) was “inhibited”. The Color ([2]; 48 h) was “colorless”, the Color ([3]; 24 H) was “colorless” and the Color ([3]; 48 h) was “colorless”. The Color ([4]; 24 H) was “orange”, the Intensity ([4]; 24 H) was 1.5 and the Color ([4]; 48 h) was “orange”. For the same compound, the Intensity ([4]; 48 h) was 3, the Color ([5]; 24 H) was “orange” and the Intensity ([5]; 24 H) was 2. For the same compound, the Color ([5]; 48 h) was “orange”, the Intensity ([5]; 48 h) was 3 and the Color (Escherichia coli (032); 24 H) was “colorless”. The Color (Escherichia coli (032); 48 h) was “colorless”, the Color ([6]; 24 H) was “colorless” and the Color ([6]; 48 h) was “colorless”. The Color ([7]; 24 H) was “colorless”, the Color ([7]; 48 h) was “colorless” and the Color (Pseudomonas putida (028); 24 H) was “colorless”. The Color (Pseudomonas putida (028); 48 h) was “colorless”.
